Experimental findings from patent US9556153B1, “JAK1 inhibitors” (Eli Lilly and Company, priority 2015, dated 2017) are described below.

Assay [1] deals with JAK2 (Homo sapiens, UniProt O60674). The experiment in a line: JAK LanthaScreen Kinase Assay (TR-FRET), JAK2 in vitro enzyme assay. It is filed as biochemical. Conditions: ATP 5 μM; n=6. Details: purchased Invitrogen. The source says:
JAK1, JAK2 and JAK3 In Vitro Enzyme Assays
The JAK LanthaScreen™ Kinase Assay (Invitrogen) is used to determine the ability of test compounds to inhibit JAK1, JAK2 and JAK3 kinase activity. These are TR-FRET assay formats that use long-lifetime terbium labeled antibody as the donor species and GFP-STAT1 as the acceptor species. Use the TR-FRET ratio to monitor JAK kinase activity where an increase in phosphorylation of the GFP-STAT1 results in an increase in the TR-FRET ratio. Perform the kinase reaction using a 12.5 μl reaction volume in shallow black 384-well Proxiplate. Add reagents to obtain final reaction conditions of […] HEPES pH, 1.76 mM Triton X-100, ATP (20.0 μM for JAK1 and JAK3 or 5 μM for JAK2) enzyme assays, 10.0 mM MgCl2, 1 mM EGTA and 0.01% Brij-35, 0.05 mM GFP-STAT1, 14 nM JAK1 enzyme for JAK1, 1.0 nM for JAK2 or 2.5 nM for JAK3 enzyme assays, and 4% DMSO and serial dilutions of test compound (diluted 1:3 from 20,000 to 1 nM). Following ATP/GFP-STAT1 addition, centrifuge the assay plates for 1 minute at 1000 revolutions per minute (RPM). Allow the plates to incubate at RT for 60 minutes and then add 12.5 μl of a stopping buffer containing 20 mM EDTA, 2 nM Terbium-anti-phosphorylated Signal Transducers and Activators of Transcription [phosphorylation Tyrosine 701 amino acid] […]

Assay [2] has as its target JAK1 (Homo sapiens, UniProt P23458). Briefly: Phospho-STAT3 (Tyr705) ACUMEN H1975-JAK1 cell-based assay. Set-up: endogenous in cells. Conditions: H1975 NSCLC cells, 4 hr; n=1; read-out: IC50, pSTAT3 (Tyr705) in H1975 cells. As for the experimental part: Phospho-STAT3 (Tyr705) ACUMEN Protocol—H1975-JAK1 Cell-Based Assay
An H1975-JAK1 cellular assay is used to confirm the potency of test compounds in NSCLC cells in which the STAT3 pathway is activated by autocrine IL-6 loop. […]
On Day 2, perform the following steps sequentially: wash 2 times with 100 μL PBS; add 50 μL of secondary antibody (1:1000; Ab2° goat anti-mouse IgG); incubate for 1 hour at RT in the dark; wash 2 times with 100 μL PBS; add 100 μL of Propidium Iodide (1:1000 in PBS from commercial solution) containing RNAse (50 μg/mL in PBS); seal plates with transparent film and incubate at RT for 2 hours before reading; read on Acumen Explorer (set parameter based on positive and negative well). […]

Sequence of JAK2 (O60674 whole entry): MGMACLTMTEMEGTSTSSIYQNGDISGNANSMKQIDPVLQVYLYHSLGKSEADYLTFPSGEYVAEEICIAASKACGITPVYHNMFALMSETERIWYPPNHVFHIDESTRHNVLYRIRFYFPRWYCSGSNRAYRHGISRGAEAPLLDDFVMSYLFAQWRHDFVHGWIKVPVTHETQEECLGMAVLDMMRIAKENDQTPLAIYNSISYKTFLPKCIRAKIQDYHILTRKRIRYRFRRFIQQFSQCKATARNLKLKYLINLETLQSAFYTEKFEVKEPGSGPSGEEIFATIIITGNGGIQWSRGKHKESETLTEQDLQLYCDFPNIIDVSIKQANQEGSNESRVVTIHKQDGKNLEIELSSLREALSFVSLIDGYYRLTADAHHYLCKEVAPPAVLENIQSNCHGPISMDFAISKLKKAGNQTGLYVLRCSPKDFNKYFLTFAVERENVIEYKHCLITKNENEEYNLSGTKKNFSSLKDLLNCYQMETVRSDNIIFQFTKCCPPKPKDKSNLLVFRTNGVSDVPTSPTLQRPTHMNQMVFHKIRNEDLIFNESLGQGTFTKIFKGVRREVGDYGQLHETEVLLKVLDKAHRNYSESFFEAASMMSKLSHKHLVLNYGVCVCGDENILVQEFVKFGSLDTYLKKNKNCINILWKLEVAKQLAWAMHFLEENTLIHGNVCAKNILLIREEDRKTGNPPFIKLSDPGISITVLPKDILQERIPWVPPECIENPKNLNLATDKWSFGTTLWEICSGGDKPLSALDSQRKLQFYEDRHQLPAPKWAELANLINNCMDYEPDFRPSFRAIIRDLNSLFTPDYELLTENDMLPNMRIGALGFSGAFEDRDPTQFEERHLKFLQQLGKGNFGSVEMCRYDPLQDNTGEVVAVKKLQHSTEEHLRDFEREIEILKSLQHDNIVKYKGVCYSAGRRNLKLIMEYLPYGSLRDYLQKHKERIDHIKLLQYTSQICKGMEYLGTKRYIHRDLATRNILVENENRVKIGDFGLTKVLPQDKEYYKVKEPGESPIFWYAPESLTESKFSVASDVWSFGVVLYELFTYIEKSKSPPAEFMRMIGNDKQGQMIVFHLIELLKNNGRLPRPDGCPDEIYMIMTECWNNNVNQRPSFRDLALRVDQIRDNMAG
Sequence of JAK1 (P23458 whole entry): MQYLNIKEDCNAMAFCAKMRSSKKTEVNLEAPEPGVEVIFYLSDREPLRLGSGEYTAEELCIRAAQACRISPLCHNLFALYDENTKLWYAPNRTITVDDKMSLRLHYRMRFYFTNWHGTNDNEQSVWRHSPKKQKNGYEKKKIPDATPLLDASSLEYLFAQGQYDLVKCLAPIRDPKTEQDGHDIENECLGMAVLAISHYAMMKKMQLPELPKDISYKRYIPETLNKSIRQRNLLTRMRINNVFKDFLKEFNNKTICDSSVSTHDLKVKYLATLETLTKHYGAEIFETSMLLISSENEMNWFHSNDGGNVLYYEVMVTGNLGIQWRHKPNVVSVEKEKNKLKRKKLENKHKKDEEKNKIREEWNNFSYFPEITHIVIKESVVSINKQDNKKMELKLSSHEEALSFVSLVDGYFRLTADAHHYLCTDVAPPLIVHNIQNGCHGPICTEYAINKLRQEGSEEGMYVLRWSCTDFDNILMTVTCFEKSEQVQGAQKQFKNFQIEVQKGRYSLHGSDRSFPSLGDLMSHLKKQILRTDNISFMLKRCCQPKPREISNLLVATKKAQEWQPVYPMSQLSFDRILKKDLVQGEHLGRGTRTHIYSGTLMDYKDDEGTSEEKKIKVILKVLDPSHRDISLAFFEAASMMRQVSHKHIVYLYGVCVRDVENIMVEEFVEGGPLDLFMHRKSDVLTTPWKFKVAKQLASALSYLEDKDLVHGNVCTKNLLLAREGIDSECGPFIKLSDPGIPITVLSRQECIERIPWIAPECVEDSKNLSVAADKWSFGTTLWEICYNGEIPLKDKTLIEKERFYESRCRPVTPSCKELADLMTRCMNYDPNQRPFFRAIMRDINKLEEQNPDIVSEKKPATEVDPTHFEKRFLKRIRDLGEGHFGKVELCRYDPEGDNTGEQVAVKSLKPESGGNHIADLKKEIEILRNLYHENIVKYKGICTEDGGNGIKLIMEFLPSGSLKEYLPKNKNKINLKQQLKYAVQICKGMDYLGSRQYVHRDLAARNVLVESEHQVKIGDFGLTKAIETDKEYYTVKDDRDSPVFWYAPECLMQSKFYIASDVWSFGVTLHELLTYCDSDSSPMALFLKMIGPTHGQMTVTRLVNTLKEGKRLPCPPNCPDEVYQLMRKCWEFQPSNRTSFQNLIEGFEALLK

Regarding `Cc1cc(Nc2cc(O[C@H]3CC[C@@H](NC[C@@H](O)C(F)(F)F)CC3)cc3c2ncn3C)nn1C` [Example 1, (2R)-3-{[cis-4-({4-[(1,5-Dimethyl-1H-pyrazol-3-yl)amino]-1-methyl-1H-benzimidazol-6-yl}oxy)cyclohexyl]amino}-1,1,1-trifluoropropan-2-ol], the figures for the IC50 in assay [1] and in assay [2] were 557 ± 337 nM and 297 nM, respectively.
